Source: patent US20170008888A1 (KYORIN PHARMACEUTICAL CO., LTD., priority 2014, published 2017)
Blank lines part the entries; values can stand above or below the compound they belong to.

What was measured:
[1] = system: DNFB-induced ear inflammation mouse model; assay: DNFB-induced ear inflammation mouse model: cytokine concentrations in ear tissue; format: in vivo, mouse (Balb/c)
Method: In vivo T-cell mediated immune response was examined in a mouse model of CHS using the hapten dinitrofluorobenzene (DNFB) as the induction agent. […] On Days 0 and 1 (sensitization), 20 μL of 0.5% v/v DNFB in acetone:olive oil (4:1) was applied to each hindpaw of 8 week old male mice (Balb/c, Charles River Laboratories; 10 mice per group unless otherwise noted). On Day 5 (elicitation) 10 μL of 0.2% v/v DNFB in acetone: olive oil (4:1) was applied to the dorsal surface of the right ear of each animal; 10 μL of acetone: olive oil (4:1) was applied to the dorsal surface of the left ear as control. Treatments were administered by group as indicated in the table below; on days when DNFB was used, the QD and the morning dose of BID as appropriate were administered 30 minutes-1 hr. prior to DNFB application. […] Approximately 24 hours after elicitation (Day 6), a 7 mm tissue punch from the central portion of both ears was collected and wet weights measured. The primary functional assessment was the difference in wet weights of the right (DNFB) vs. left (vehicle) ears compared to the vehicle treatment (Vehicle1-S) as an indicator of inflammation (Table 17). Ear tissue punches were flash frozen, stored at −70° C. and analyzed for cytokines (see below).
Cytokine concentrations after DNFB induction and treatment were analyzed in the weighed and flash frozen tissues of the right (DNFB) and left (control) 7 mm ear punches. The ear tissues were stored at −70° C. until prepared for analysis as follows. Left or right ear tissues from the same treatment group were pooled and crushed with mortar and pestle under liquid nitrogen. Tissue representing 7-8 ear punches by weight was homogenized in Buffer A (50 mM HEPES pH 7.4, 100 mM NaCl) containing 1 tablet EDTA-free Protease Inhibitor (Thermo Fisher Scientific, Rockford, Ill.) per 10 mL, 1× Phosphatase Inhibitor Cocktail II (AG Scientific, San Diego, Calif.), and 1 mM PMSF (Sigma, St. Louis, Mo.). Homogenization was performed in Lysing Matrix D tubes (MP Biomedicals, Solon, Ohio), using the FastPrep-24 instrument (MP Biomedicals) at a speed setting of 6 for 4 cycles of 30 seconds, with cooling on ice in between cycles. The tubes were then centrifuged at 1,000×g for 10 min at 4° C. Supernatant was collected and briefly sonicated using the Microson probe sonicator at setting 3 (Misonix, Farmingdale, N.Y.) before centrifuging again at 10,000×g for 10 min at 4° C. The supernatant was ultracentrifuged at 100,000×g for 1 h at 4° C. in the Optima Max-E (Beckman Coulter, Indianapolis, Ind.) to separate soluble and membrane protein fractions. The soluble (supernatant) fraction was collected and protein concentrations determined using the Dc protein kit (Bio-Rad, Hercules, Calif.). Soluble ear proteins were analyzed in triplicate for cytokine response at a final protein concentration of 4 mg/ml using the Bio-Plex Pro Mouse Cytokine 23-Plex panel (Bio-Rad) as per manufacturer's protocols. Magnetic beads were read on the Bio-Plex MAGPIX multiplex reader instrument using the accompanying xPONENT 4.2 acquisition software (Bio-Rad Laboratories, Hercules, Calif.). Data were analyzed via the Bio-Plex Manager software v6.1 (Bio-Rad Laboratories). Response was calculated as a percentage of the cytokine concentrations measured in the right (DNFB) ears of vehicle 1 dosed (S regimen, i.e. dosed Day 0-5) mice (Table 18).

[2] = target: T1, BRPF1 (Homo sapiens, UniProt P55201); assay: Bromodomain binding assay: BRPF1
T1 construct: T7 phage strains displaying bromodomains were grown in parallel; made in house; host or cells: E. coli host derived from BL21, infected with T7 phage
T1 sequence (P55201 628-732 limits assumed, species assumed): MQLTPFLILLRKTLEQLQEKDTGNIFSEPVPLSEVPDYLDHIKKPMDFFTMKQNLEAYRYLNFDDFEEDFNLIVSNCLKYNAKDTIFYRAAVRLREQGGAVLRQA
Method: T7 phage strains displaying bromodomains were grown in parallel in 24-well blocks in an E. coli host derived from the BL21 strain. E. coli were grown to log-phase and infected with T7 phage from a frozen stock (multiplicity of infection=0.4) and incubated with shaking at 32° C. until lysis (90-150 minutes). The lysates were centrifuged (5,000×g) and filtered (0.2 μm) to remove cell debris. […] The liganded beads were blocked with excess biotin and washed with blocking buffer (SeaBlock (Pierce), 1% BSA, 0.05 Tween 20, 1 mM DTT) to remove unbound ligand and to reduce non-specific phage binding. […] Test compounds (T62 and 46) were prepared as 1000× stocks in 100% DMSO and subsequently diluted 1:10 in monoethylene glycol (MEG) to create stocks at 100× the screening concentration (resulting stock solution is 10% DMSO/90% MEG). The compounds were then diluted directly into the assays such that the final concentration of DMSO and MEG were 0.1% and 0.9%, respectively. All reactions were performed in polystyrene 96-well plates in a final volume of 0.135 ml. […] The bromodomain concentration in the eluates was measured by qPCR. Compounds were assayed for binding activity against a panel of 40 bromodomain-containing proteins.

SMILES: CCOc1cc(C(=O)N2CCCN(C)CC2)ccc1Nc1cc2c(cn1)N(C)C(=O)c1ccccc1N2C [Compound 8]
- G-CSF: Mean % Cytokine Concentration in DNFB Treated Right Ears versus Vehicle 1-Dosed (S) Mice ([1]; 25 mg/kg, regimen E): 68%
- GM-CSF: Mean % Cytokine Concentration in DNFB Treated Right Ears versus Vehicle 1-Dosed (S) Mice ([1]; 25 mg/kg, regimen E): 40%
- IFN-γ: Mean % Cytokine Concentration in DNFB Treated Right Ears versus Vehicle 1-Dosed (S) Mice ([1]; 25 mg/kg, regimen E): 52%
- IL-1α: Mean % Cytokine Concentration in DNFB Treated Right Ears versus Vehicle 1-Dosed (S) Mice ([1]; 25 mg/kg, regimen E): 88%
- IL-1β: Mean % Cytokine Concentration in DNFB Treated Right Ears versus Vehicle 1-Dosed (S) Mice ([1]; 25 mg/kg, regimen E): 56%
- IL-3: Mean % Cytokine Concentration in DNFB Treated Right Ears versus Vehicle 1-Dosed (S) Mice ([1]; 25 mg/kg, regimen E): 67%
- IL-5: Mean % Cytokine Concentration in DNFB Treated Right Ears versus Vehicle 1-Dosed (S) Mice ([1]; 25 mg/kg, regimen E): 37%
- IL-6: Mean % Cytokine Concentration in DNFB Treated Right Ears versus Vehicle 1-Dosed (S) Mice ([1]; 25 mg/kg, regimen E): 58%
- IL-12 (p40): Mean % Cytokine Concentration in DNFB Treated Right Ears versus Vehicle 1-Dosed (S) Mice ([1]; 25 mg/kg, regimen E): 79%
- IL-13: Mean % Cytokine Concentration in DNFB Treated Right Ears versus Vehicle 1-Dosed (S) Mice ([1]; 25 mg/kg, regimen E): 74%
- IL-17A: Mean % Cytokine Concentration in DNFB Treated Right Ears versus Vehicle 1-Dosed (S) Mice ([1]; 25 mg/kg, regimen E): 69%
- KC: Mean % Cytokine Concentration in DNFB Treated Right Ears versus Vehicle 1-Dosed (S) Mice ([1]; 25 mg/kg, regimen E): 39%
- MCP-1: Mean % Cytokine Concentration in DNFB Treated Right Ears versus Vehicle 1-Dosed (S) Mice ([1]; 25 mg/kg, regimen E): 44%
- MIP-1α: Mean % Cytokine Concentration in DNFB Treated Right Ears versus Vehicle 1-Dosed (S) Mice ([1]; 25 mg/kg, regimen E): 62%
- MIP-1β: Mean % Cytokine Concentration in DNFB Treated Right Ears versus Vehicle 1-Dosed (S) Mice ([1]; 25 mg/kg, regimen E): 60%
- RANTES: Mean % Cytokine Concentration in DNFB Treated Right Ears versus Vehicle 1-Dosed (S) Mice ([1]; 25 mg/kg, regimen E): 66%
- TNF-α: Mean % Cytokine Concentration in DNFB Treated Right Ears versus Vehicle 1-Dosed (S) Mice ([1]; 25 mg/kg, regimen E): 53%
- G-CSF: Mean % Cytokine Concentration in DNFB Treated Right Ears versus Vehicle 1-Dosed (S) Mice ([1]; 60 mg/kg, regimen E): 50%
- GM-CSF: Mean % Cytokine Concentration in DNFB Treated Right Ears versus Vehicle 1-Dosed (S) Mice ([1]; 60 mg/kg, regimen E): 48%
- IFN-γ: Mean % Cytokine Concentration in DNFB Treated Right Ears versus Vehicle 1-Dosed (S) Mice ([1]; 60 mg/kg, regimen E): 58%
- IL-1α: Mean % Cytokine Concentration in DNFB Treated Right Ears versus Vehicle 1-Dosed (S) Mice ([1]; 60 mg/kg, regimen E): 188%
- IL-1β: Mean % Cytokine Concentration in DNFB Treated Right Ears versus Vehicle 1-Dosed (S) Mice ([1]; 60 mg/kg, regimen E): 62%
- IL-3: Mean % Cytokine Concentration in DNFB Treated Right Ears versus Vehicle 1-Dosed (S) Mice ([1]; 60 mg/kg, regimen E): 77%
- IL-5: Mean % Cytokine Concentration in DNFB Treated Right Ears versus Vehicle 1-Dosed (S) Mice ([1]; 60 mg/kg, regimen E): 57%
- IL-6: Mean % Cytokine Concentration in DNFB Treated Right Ears versus Vehicle 1-Dosed (S) Mice ([1]; 60 mg/kg, regimen E): 61%
- IL-12 (p40): Mean % Cytokine Concentration in DNFB Treated Right Ears versus Vehicle 1-Dosed (S) Mice ([1]; 60 mg/kg, regimen E): 88%
- IL-13: Mean % Cytokine Concentration in DNFB Treated Right Ears versus Vehicle 1-Dosed (S) Mice ([1]; 60 mg/kg, regimen E): 85%
- IL-17A: Mean % Cytokine Concentration in DNFB Treated Right Ears versus Vehicle 1-Dosed (S) Mice ([1]; 60 mg/kg, regimen E): 68%
- KC: Mean % Cytokine Concentration in DNFB Treated Right Ears versus Vehicle 1-Dosed (S) Mice ([1]; 60 mg/kg, regimen E): 29%
- MCP-1: Mean % Cytokine Concentration in DNFB Treated Right Ears versus Vehicle 1-Dosed (S) Mice ([1]; 60 mg/kg, regimen E): 47%
- MIP-1α: Mean % Cytokine Concentration in DNFB Treated Right Ears versus Vehicle 1-Dosed (S) Mice ([1]; 60 mg/kg, regimen E): 62%
- MIP-1β: Mean % Cytokine Concentration in DNFB Treated Right Ears versus Vehicle 1-Dosed (S) Mice ([1]; 60 mg/kg, regimen E): 44%
- RANTES: Mean % Cytokine Concentration in DNFB Treated Right Ears versus Vehicle 1-Dosed (S) Mice ([1]; 60 mg/kg, regimen E): 53%
- TNF-α: Mean % Cytokine Concentration in DNFB Treated Right Ears versus Vehicle 1-Dosed (S) Mice ([1]; 60 mg/kg, regimen E): 81%
- G-CSF: Mean % Cytokine Concentration in DNFB Treated Right Ears versus Vehicle 1-Dosed (S) Mice ([1]; 60 mg/kg, regimen S): 36%
- GM-CSF: Mean % Cytokine Concentration in DNFB Treated Right Ears versus Vehicle 1-Dosed (S) Mice ([1]; 60 mg/kg, regimen S): 52%
- IFN-γ: Mean % Cytokine Concentration in DNFB Treated Right Ears versus Vehicle 1-Dosed (S) Mice ([1]; 60 mg/kg, regimen S): 46%
- IL-1α: Mean % Cytokine Concentration in DNFB Treated Right Ears versus Vehicle 1-Dosed (S) Mice ([1]; 60 mg/kg, regimen S): 136%
- IL-1β: Mean % Cytokine Concentration in DNFB Treated Right Ears versus Vehicle 1-Dosed (S) Mice ([1]; 60 mg/kg, regimen S): 52%
- IL-3: Mean % Cytokine Concentration in DNFB Treated Right Ears versus Vehicle 1-Dosed (S) Mice ([1]; 60 mg/kg, regimen S): 61%
- IL-5: Mean % Cytokine Concentration in DNFB Treated Right Ears versus Vehicle 1-Dosed (S) Mice ([1]; 60 mg/kg, regimen S): 37%
- IL-6: Mean % Cytokine Concentration in DNFB Treated Right Ears versus Vehicle 1-Dosed (S) Mice ([1]; 60 mg/kg, regimen S): 32%
- IL-12 (p40): Mean % Cytokine Concentration in DNFB Treated Right Ears versus Vehicle 1-Dosed (S) Mice ([1]; 60 mg/kg, regimen S): 73%
- IL-13: Mean % Cytokine Concentration in DNFB Treated Right Ears versus Vehicle 1-Dosed (S) Mice ([1]; 60 mg/kg, regimen S): 75%
- IL-17A: Mean % Cytokine Concentration in DNFB Treated Right Ears versus Vehicle 1-Dosed (S) Mice ([1]; 60 mg/kg, regimen S): 38%
- KC: Mean % Cytokine Concentration in DNFB Treated Right Ears versus Vehicle 1-Dosed (S) Mice ([1]; 60 mg/kg, regimen S): 35%
- MCP-1: Mean % Cytokine Concentration in DNFB Treated Right Ears versus Vehicle 1-Dosed (S) Mice ([1]; 60 mg/kg, regimen S): 43%
- MIP-1α: Mean % Cytokine Concentration in DNFB Treated Right Ears versus Vehicle 1-Dosed (S) Mice ([1]; 60 mg/kg, regimen S): 57%
- MIP-1β: Mean % Cytokine Concentration in DNFB Treated Right Ears versus Vehicle 1-Dosed (S) Mice ([1]; 60 mg/kg, regimen S): 52%
- RANTES: Mean % Cytokine Concentration in DNFB Treated Right Ears versus Vehicle 1-Dosed (S) Mice ([1]; 60 mg/kg, regimen S): 51%
- TNF-α: Mean % Cytokine Concentration in DNFB Treated Right Ears versus Vehicle 1-Dosed (S) Mice ([1]; 60 mg/kg, regimen S): 65%

- Kd [2]: > 20 µM
SMILES: CCOc1cc(C(=O)N[C@H]2CC[C@H](O)CC2)ccc1Nc1cc2c(cn1)N(C)C(=O)c1ccccc1N2C [Compound T62]
